Measured values taken from paper PMC6918900, “Concentration-Dependent Activity of Hydromethylthionine on Cognitive Decline and Brain Atrophy in Mild to Moderate Alzheimer’s Disease” (Journal of Alzheimer's Disease, 2019).
Read-outs that look alike come from different tables or passages of the source.

Assay: Population PK: parent MT steady state plasma Cmax,ss in Phase III patients
Format: in vivo, human
Details: for % high Cmax (Cmax,ss > 0.373 ng/ml): LMTM 8 mg/day; for Cmax: human, plasma, oral, parent MT
Description: Pharmacokinetic analyses were undertaken using plasma concentration data from patients who participated in either of two completed Phase III trials which have been described previously [[35, 36]]. In brief, the first (TRx-237-015) was a 15-month study which recruited 890 patients from 115 sites across 16 countries in EU, North America, Asia, and Russia. Patients had to be <90 years of age and have a diagnosis of mild to moderate probable AD according to National Institute of Aging (NIA) and Alzheimer’s Association (AA) criteria and a Mini-Mental State Examination (MMSE) score of 14–26 inclusive and with a Clinical Dementia Rating (CDR) total score of 1 or 2. The second study (TRx-237-005) was an 18-month trial which recruited 800 patients from 108 sites in Canada, United States, Australia, and Europe. Patients had to meet the same age and diagnosis criteria, except that they were required to have a MMSE score of 20–26 inclusive and a CDR total score of 0.5 or 1.0. Concomitant use of AChEIs or memantine (or both) was permitted in both studies provided this was at a stable dose for at least 18 weeks before randomization. Concomitant use of serotonergic antidepressant, antipsychotic (except clozapine or olanzapine), and sedative medications was also permitted at stable doses where clinically feasible. Patients were randomly assigned to receive LMTM at doses of 250, 150, or 8 mg/day in Study 015 and doses of 200 or 8 mg/day in Study TRx-237-005. Randomization in both studies was stratified according to geographical region, use of AD-labelled co-medications, and severity of AD. The co-primary outcomes in both studies were the Alzheimer’s Disease Assessment Scale–cognitive subscale, 11-item version (ADAS-cog11) and the Alzheimer’s Disease Co-operative Study–Activities of Daily Living, 23-item version (ADCS-ADL23) scale measured at baseline and every 3 months. MRI scans were undertaken at screening or baseline and at 3-month intervals. MRI acquisition protocol and parameters were standardized across sites and all data were centrally collected, quality-controlled, and analyzed blind by an imaging core lab (Bioclinica). Volumetric data were used to measure changes in whole brain volume (WBV, which provides a measure of the volume of grey and white matter), lateral ventricular volume (LVV), and other regional volumes including hippocampus, although only the global measures are reported in the present study. Baseline volumes were assessed using FreeSurfer 5.3, and volume change was assessed using Boundary Shift Integral and Tensor Based Morphometry for regional structures. Full details and study protocols for these two trials are available [[35, 36]].
Blood samples for assessment of parent MT, N-desmethyl MT, and total MT (sum of parent MT and a labile LMT conjugate) were collected from each patient on the first treatment visit (two samples: pre-dose and approximately 3.5 h after the dose) and at each subsequent on-treatment visit. The protocol specified that PK plasma sampling was to be conducted only at sites with adequate facilities (i.e., a refrigerated centrifuge and adequate capability to reliably freeze samples). Blinded analyses were conducted at the University of Aberdeen GLP Test Facility. MT levels in plasma were measured using liquid chromatography-tandem mass spectrometry. […] The method was validated for use in the Phase III studies over the range 0.2 to 10 ng/ml. Extrapolated MT concentrations were available below the lower limit of quantitation (but above the lower limit of detection) in approximately 35% of the Day 1 patients randomized to the 8 mg/day dose. The method was validated for long-term sample storage of 162 days at –20°C. […] Plasma samples from a total of 1,296 patients from the two Phase III studies in AD were available for analysis and, of these, 1,162 also had baseline and post-baseline efficacy outcome data available for analysis. […]

CN(C)c1ccc2c(c1)Sc1cc(N(C)C)ccc1N2 [LMTM, leuco-methylthioninium bis(hydromethanesulphonate)]
patients with subthreshold plasma levels (below 0.2 ng/ml) after first dose on Day 1 (8 mg/day): 35%
steady state plasma levels (8 mg/day dose): 0.3 to 0.8 ng/mL
probability of achieving the Cmax,ss threshold of 0.373 ng/ml (8 mg/day, creatinine clearance 20 ml/min/1.73 m^2): ~100%
probability of achieving the Cmax,ss threshold of 0.373 ng/ml (8 mg/day, creatinine clearance 106 ml/min/1.73 m^2): essentially zero
% high Cmax (Cmax,ss > 0.373 ng/ml) (patients not using anti-inflammatory and antirheumatic products, non-steroids): 67.3%
% high Cmax (Cmax,ss > 0.373 ng/ml) (patients not using antihypertensive/antiarrhythmic drugs): 60.6%
% high Cmax (Cmax,ss > 0.373 ng/ml) (patients not using antithrombotic agents): 62.6%
% high Cmax (Cmax,ss > 0.373 ng/ml) (patients not using blood glucose lowering drugs, excluding insulins): 65.6%
% high Cmax (Cmax,ss > 0.373 ng/ml) (patients not using drugs for peptic ulcer and gastro-esophageal reflux disease): 65.3%
% high Cmax (Cmax,ss > 0.373 ng/ml) (patients not using lipid modifying agents): 66.0%
% high Cmax (Cmax,ss > 0.373 ng/ml) (patients not using thyroid preparations): 64.3%
% high Cmax (Cmax,ss > 0.373 ng/ml) (patients using anti-inflammatory and antirheumatic products, non-steroids): 59.5%
% high Cmax (Cmax,ss > 0.373 ng/ml) (patients using antithrombotic agents): 70.3%
% high Cmax (Cmax,ss > 0.373 ng/ml) (patients using blood glucose lowering drugs, excluding insulins): 66.2%
% high Cmax (Cmax,ss > 0.373 ng/ml) (patients using drugs for peptic ulcer and gastro-esophageal reflux disease): 66.9%
% high Cmax (Cmax,ss > 0.373 ng/ml) (patients using lipid modifying agents): 65.2%
% high Cmax (Cmax,ss > 0.373 ng/ml) (patients using thyroid preparations): 74.1%
estimated mean plasma concentration (expected at 16 mg/day): 0.88 ± 0.18 ng/mL
plasma concentrations (high doses (150–250 mg/day)): 4 to 21 ng/mL
Cmax (8 mg/day, 8 mg/day – Group 1, read-out: Cmax,ss Mean (SD)): 0.334 ng/mL
Cmax (8 mg/day, 8 mg/day – Group 1, read-out: Cmax,ss Range): 0.257 to 0.373 ng/mL
Cmax (8 mg/day, 8 mg/day – Group 2, read-out: Cmax,ss Range): 0.373 to 0.414 ng/mL
Cmax (8 mg/day, 8 mg/day – Group 3, read-out: Cmax,ss Mean (SD)): 0.449 ng/mL
Cmax (8 mg/day, 8 mg/day – Group 3, read-out: Cmax,ss Range): 0.415 to 0.478 ng/mL
Cmax (8 mg/day, 8 mg/day – Group 4, read-out: Cmax,ss Mean (SD)): 0.565 ng/mL
Cmax (8 mg/day, 8 mg/day – Group 4, read-out: Cmax,ss Range): 0.479 to 0.812 ng/mL
Cmax (150 mg/day, 150 mg/day, read-out: Cmax,ss Mean (SD)): 7.82 ng/mL
Cmax (150 mg/day, 150 mg/day, read-out: Cmax,ss Range): 5.1 to 18.6 ng/mL
Cmax (200 mg/day, 200 mg/day, read-out: Cmax,ss Mean (SD)): 10.1 ng/mL
Cmax (200 mg/day, 200 mg/day, read-out: Cmax,ss Range): 6.56 to 21.3 ng/mL
Cmax (250 mg/day, 250 mg/day, read-out: Cmax,ss Mean (SD)): 12.6 ng/mL
Cmax (250 mg/day, 250 mg/day, read-out: Cmax,ss Range): 8.83 to 21.2 ng/mL
Cmax (8 mg/day – Group 2, read-out: Cmax,ss Mean (SD)): 0.393 ng/mL
